Experimental data taken from patent US20240130367A1, “PLANT GROWTH PROMOTERS” (University of Durham, priority 2020, published 2024).
Where a name gives a salt, the structure may show the parent alone.

Tested on: Arabidopsis thaliana wild-type
Test: Hypocotyl growth assay under reduced light
Format: in vivo
Conditions: hypocotyl, 100 μM; for New length (cm) / New Length: three days; for New length (cm): trials 1, 2, 3 and SAM each with own DMSO control; for New Length: in cm
Description: Arabidopsis thaliana wild-type seeds were from laboratory stocks of Columbia (Col-0) and Landsberg erecta (Ler-0) accessions. Arabidopsis thaliana is a dicot. The mutants of gid1 (J. Griffiths, et al., Plant Cell, 2006, 18, 3399-3414) were obtained from Dr. Steve Thomas (Rothamsted Research, UK) and were in a Col-0 background, whilst the della quintuple mutant (S. H. Feng et al. Nature, 2008, 451: 475-479) and ga1-5 (I. Fridborg et al. Plant Cell, 1999, 11: 1019-1031) were in a Ler-0 background and was obtained from the Nottingham Arabidopsis Stock Centre (NASC). The A. thaliana line expressing RGA-GFP (A. L. Silverstone et al. The Plant Cell, 2001, 13: 1555-1565), Col-0 background was obtained from Prof. Keith Lindsey (Durham University, UK). Seeds were plated out 1×MS medium pH 5.8 (T. Murashige and F. Skoog (1962) Physiologia Plantarum 15: 473-497) in petri dishes with a concentration of either 0.8% or 1.2% (w/v) phytoagar for root and hypocotyl measurements, respectively. After sowing seeds were stratified on plates at 4° C. for a minimum of 48 h to achieve synchronous germination. Seedlings were grown for either 7 or 2 days for root and hypocotyl measurements, respectively, prior to treatment with chemicals. For hypocotyl measurements, seeds were sown on nylon mesh (acid resistant monofilament nylon filter mesh fabric; GZ, model number H20M). Seedling were grown in a Percival (CU-36L5D, CLF plant climatics, Emersacker, Germany) with a photoperiod of 16/8 h with a light intensity of either 150 μmol m^2 s^−1 or 50 μmol m^2 s^−1 for root and hypocotyl measurements, respectively, and a temperature of 20±1° C.
After growing as described above seedlings for root assays were transferred to 1.2% (w/v) agar plates containing each chemical at a final concentration of 100 μM (the addition of the chemicals was performed when media had cooled to 50° C. after autoclaving), with an equivalent concentration of DMSO as control. At this stage the positions of the root tips were marked on the petri dish. The plants were subsequently grown vertically and after a further 5 days images of the plates were scanned and the root growth that occurred during the 5 days on chemicals was measured using ImageJ software. 18 seedlings were measured for each treatment. For hypocotyl measurements the assay performed was adapted from de Lucas et al. (2008, supra). After growing seedlings as described above, the nylon mesh was transferred across to the plates containing chemical. The plants were then placed in vertical orientation for three days under reduced light intensity (by covering plates with 2 layers of 80 g·m^2 white paper) before the plates were scanned. The measurement of hypocotyl was done using ImageJ software. At least 15 seedlings were measured for each plate.
To determine the mechanism of A1 action via the GA/DELLA signaling pathway, the response of A1 in a series of GA synthesis/signalling mutants was investigated. For these assays the focus was on hypocotyl growth, because it is well established that DELLA can inhibit the binding of PIFs to their target promoter leading to a reduction in GA-regulated hypocotyl growth (A. Castillon, H. Shen and E. Huq (2007) Trends in Plant Science, 12: 514-521.; de Lucas et al. 2008, supra; S. H. Feng et al. 2008, supra. To establish the use of A1 in this assay, hypocotyl growth was first tested by growing the seedlings on agar plates containing A1, with GA and PAC used as positive and negative controls, respectively, for three days in reduced light conditions to achieve a balance between maximum and minimum hypocotyl growth. […] Having established the hypocotyl assay, DELLA-dependence of the A1 effect was then confirmed genetically. To test this, a mutant line that lacks all DELLA (GAI, RGA, RGL1, RGL2 and RGL3) function was used.
The effect of additional compounds on hypocotyl growth was investigated using the same methods as described above (100 μM of each compound was used). […]

[1] = relative to the DMSO control of the same trial

Row | SMILES | New length (cm) | Relative growth (cm) [1] | New Length | Relative growth (cm) (relative to DMSO control)
1 | CCOCCOc1c(Cl)cc(S(=O)(=O)NCCN)c2ccccc12.Cl [JAR141, N-(2-azaniumylethyl)-3-chloro-4-(2-ethoxyethoxy)naphthalene-1-sulfonamide Chloride] | 0.4387 cm | 0.09026 |  | 
2 | COc1ccc(S(=O)(=O)NCCN)cc1.Cl [JAR71, N-(2′-aminoethyl)-4-methoxybenzene-1-sulfonamide Hydrogen Chloride] | 0.331 cm | 0.3734 |  | 
3 | CCCCCCOc1ccc(S(=O)(=O)NCCN)cc1.Cl [JAR72, N-(2′-aminoethyl)-4-hexoxybenzene-1-sulfonamide Hydrogen Chloride] | 0.195 cm | −0.1909 |  | 
4 | NCCNS(=O)(=O)c1cccc(F)c1 [JAR478, N-(2-aminoethyl)-3-fluorobenzene-1-sulfonamide Hydrochloride] |  |  | 0.8424 | 0.2289
5 | NCCNS(=O)(=O)c1cccc2c(Cl)cccc12 [JAR482, N-(2′-aminoethyl)-5-chloronaphthalene-1-sulfonamide Hydrochloride] |  |  | 0.5888 | 
6 | NCCNS(=O)(=O)c1cccc2cccnc12 [JAR13, N-(2′-aminoethyl)quinoline-8-sulfonamide] | 0.212 cm | −0.09787 |  | 
7 | NCCCNS(=O)(=O)c1cccc2ccccc12 [JAR481, N-(3′-aminopropyl)naphthalene-1-sulfonamide Hydrochloride] |  |  | 0.8072 | 0.1775
8 | CCOCCOc1ccc2ccccc2c1S(=O)(=O)NCCN.Cl [JAR144, N-(2′-aminoethyl)-2-(2″-ethoxyethoxy)naphthalene-1-sulfonamide Hydrogen Chloride] | 0.6007 cm | 0.4927 |  | 
9 | Cc1ccc(S(=O)(=O)NCCN)cc1.Cl [JAR142, 4-methyl-N-(2′-aminoethyl)benzene-1-sulfonamide Hydrogen Chloride] | 0.5868 cm | 0.4584 |  | 
10 | Cl.NCCN(Cc1ccccc1)S(=O)(=O)c1cccc2ccccc12 [SAM2, N-(2′-aminoethyl)-N-benzylnaphthalene-1-sulfonamide Hydrogen Chloride] | 0.191 cm | −0.03046 |  | 
11 | C=CCN(CCN)S(=O)(=O)c1cccc2ccccc12.Cl [SAM1, N-(2′-aminolethyl)-N-(prop-2″-en-1′-yl)naphthalene-1-sulfonamide Hydrogen Chloride] | 0.193 cm | −0.0203 |  | 
12 | CC(C)(C)c1ccc(S(=O)(=O)NCCN)cc1 [JAR484, N-(2′-aminoethyl)-4-tent-butylbenzene-1-sulfonamide Hydrochloride] |  |  | 0.8713 | 0.271
13 | Cl.NCCNS(=O)(=O)c1cccc2ncccc12 [JAR30, N-(2′-aminoethyl)-quinoline-5-sulfonamide Hydrogen Chloride] | 0.333 cm | 0.417 |  | 
14 | Cl.NCCNS(=O)(=O)c1cccc2ccncc12 [JAR31, N-(2′-aminoethyl)isoquinoline-8-sulfonamide Hydrogen Chloride] | 0.274 cm | 0.166 |  | 
15 | CN(CCN)S(=O)(=O)c1cccc2ccccc12 [JAR491, N-(2′-aminoethyl)-N-methylnaphthalene-1-sulfonamide] |  |  | 0.8285 | 0.2085
16 | COc1ccccc1S(=O)(=O)NCCN.Cl [JAR69, N-(2′-aminoethyl)-2-methoxybenzene-1-sulfonamide Hydrogen Chloride] | 0.316 cm | 0.3112 |  | 

Row | SMILES | New length (cm) | Relative growth (cm) [1] | New Length | Relative growth (cm) (relative to DMSO control)
17 | COc1ccc2ccccc2c1S(=O)(=O)NCCN.Cl [JAR36, N-(2′-aminoethyl)-2-methoxynaphthalene-1-sulfonamide Hydrogen Chloride] | 0.329 cm | 0.4 |  | 
18 | Cl.NCCNS(=O)(=O)C1CCCCC1 [JAR488, N-(2′-aminoethyl)cyclohexanesulfonamide Hydrochloride] |  |  | 0.668 | −0.02555
19 | CCOC(=O)CN(CCN)S(=O)(=O)c1cccc2ccccc12.Cl [SAM3, ethyl 2″-[N-(2′-aminoethyl)naphthalene-1-sulfonamido]acetate Hydrogen Chloride] | 0.272 cm | 0.3807 |  | 
20 | CCCc1ccc(S(=O)(=O)NCCN)cc1 [JAR489, N-(2-aminoethyl)-4-propylbenzene-1-sulfonamide] |  |  | 0.9133 | 0.3323
21 | Cl.NCCNS(=O)(=O)c1cccc2cnccc12 [JAR32, N-(2′-aminoethyl)isoquinoline-5-sulfonamide Hydrogen Chloride] | 0.202 cm |  |  | 
22 | NCCNS(=O)(=O)c1ccccc1F [JAR480, N-(2′-aminoethyl)-2-fluorobenzene-1-sulfonamide Hydrochloride] |  |  | 0.8424 | 0.2289
23 | CCCCCOc1ccc2ccccc2c1S(=O)(=O)NCCN.Cl [JAR68, N-(2′-aminoethyl)-2-pentoxynaphthalene-1-sulfonamide Hydrogen Chloride] | 0.197 cm | −0.1826 |  | 
24 | CCOCCOc1ccc(S(=O)(=O)NCCN)c2ccccc12.Cl [JAR145, N-(2′-aminoethyl)-4-(2″-ethoxyethoxy)naphthalene-1-sulfonamide Hydrogen Chloride] | 0.6424 cm | 0.5965 |  | 
25 | COc1cccc(S(=O)(=O)NCCN)c1.Cl [JAR490, N-(2′-aminoethyl)-3-methoxybenzene-1-sulfonamide Hydrochloride] |  |  | 0.8299 | 0.2107
26 | COc1ccc(S(=O)(=O)NCCN)c2ccccc12.Cl [JAR33, N-(2′-aminoethyl)-4-methoxynaphthalene-1-sulfonamide Hydrogen Chloride] | 0.2986 cm | 0.2705 |  | 
27 | Cl.NCCNS(=O)(=O)c1ccc2c3c(cccc13)C(=O)N2 [JAR67, N-(2′-aminoethyl)-1,8-naphtholactam-5-sulfonamide Hydrogen Chloride] | 0.187 cm | −0.2241 |  | 
28 | NCCNS(=O)(=O)c1ccc([N+](=O)[O-])cc1 [JAR483, N-(2′-aminoethyl)-4-nitrobenzene-1-sulfonamide Hydrochloride] |  |  | 0.8707 | 0.2701
29 | CCCCCCOc1ccccc1S(=O)(=O)NCCN.Cl [JAR73, N-(2′-aminoethyl)-2-hexoxybenzene-1-sulfonamide Hydrogen Chloride] | 0.202 cm | −0.1618 |  | 
30 | CCCCCOc1ccc(S(=O)(=O)NCCN)c2ccccc12.Cl [JAR70, N-(2′-aminoethyl)-4-pentoxynaphthalene-1-sulfonamide Hydrogen Chloride] | 0.173 cm | −0.2822 |  | 
31 | CNc1ccc(S(=O)(=O)NCCN)c2nonc12.Cl [JAR143, 7-(methylamino)-N-(2′-aminoethyl)-2,1,3-benzoxadiazole-4-sulfonamide Hydrogen Chloride] | 0.2847 cm | −0.2925 |  | 
32 | Cl.NCCNS(=O)(=O)c1ccc(-c2ccccc2)cc1 [JAR479, N-(2′-aminoethyl)-[1,1″-biphenyl]-4-sulfonamide Hydrochloride] |  |  | 0.7771 | 0.1335
